Test results: ChEMBL document CHEMBL6115041, “Discovery of AIC263282, a Hepatitis B Virus Capsid Assembly Modulator Ready for Candidate Profiling” (J Med Chem, 2025)
Converted amounts (≈) assume the structure as drawn.

Tests used:
[1] = system: Hepatitis B virus; test: Antiviral activity against HBV infected in human HePAD38 cells measured after 6 days by qPCR analysis; format: functional, organism-based; details: HePAD38, 144 h
[2] = Kinetic solubility of compound; format: physicochemical
[3] = Cytotoxicity against human HePAD38 cells measured after 6 days by prestoblue reagent based analysis; format: toxicity, cell-based; details: time 6 day
[4] = Metabolic stability in mouse liver microsome assessed as liver blood flow by HPLC analysis relative to control; format: ADME; details: microsomes
[5] = biological target: Voltage-gated inwardly rectifying potassium channel KCNH2 (Homo sapiens, UniProt Q12809); test: Inhibition of human ERG by patch clamp assay; format: toxicity
[6] = system: hERG; test: Selectivity ratio of IC50 for human ERG to EC50 for Antiviral activity against HBV infected in human HePAD38 cells; format: toxicity, cell-based; details: HePAD38 cells infected with HBV (for the EC50), read-out: Ratio IC50/EC50

Chain of Voltage-gated inwardly rectifying potassium channel KCNH2 (Q12809 whole entry): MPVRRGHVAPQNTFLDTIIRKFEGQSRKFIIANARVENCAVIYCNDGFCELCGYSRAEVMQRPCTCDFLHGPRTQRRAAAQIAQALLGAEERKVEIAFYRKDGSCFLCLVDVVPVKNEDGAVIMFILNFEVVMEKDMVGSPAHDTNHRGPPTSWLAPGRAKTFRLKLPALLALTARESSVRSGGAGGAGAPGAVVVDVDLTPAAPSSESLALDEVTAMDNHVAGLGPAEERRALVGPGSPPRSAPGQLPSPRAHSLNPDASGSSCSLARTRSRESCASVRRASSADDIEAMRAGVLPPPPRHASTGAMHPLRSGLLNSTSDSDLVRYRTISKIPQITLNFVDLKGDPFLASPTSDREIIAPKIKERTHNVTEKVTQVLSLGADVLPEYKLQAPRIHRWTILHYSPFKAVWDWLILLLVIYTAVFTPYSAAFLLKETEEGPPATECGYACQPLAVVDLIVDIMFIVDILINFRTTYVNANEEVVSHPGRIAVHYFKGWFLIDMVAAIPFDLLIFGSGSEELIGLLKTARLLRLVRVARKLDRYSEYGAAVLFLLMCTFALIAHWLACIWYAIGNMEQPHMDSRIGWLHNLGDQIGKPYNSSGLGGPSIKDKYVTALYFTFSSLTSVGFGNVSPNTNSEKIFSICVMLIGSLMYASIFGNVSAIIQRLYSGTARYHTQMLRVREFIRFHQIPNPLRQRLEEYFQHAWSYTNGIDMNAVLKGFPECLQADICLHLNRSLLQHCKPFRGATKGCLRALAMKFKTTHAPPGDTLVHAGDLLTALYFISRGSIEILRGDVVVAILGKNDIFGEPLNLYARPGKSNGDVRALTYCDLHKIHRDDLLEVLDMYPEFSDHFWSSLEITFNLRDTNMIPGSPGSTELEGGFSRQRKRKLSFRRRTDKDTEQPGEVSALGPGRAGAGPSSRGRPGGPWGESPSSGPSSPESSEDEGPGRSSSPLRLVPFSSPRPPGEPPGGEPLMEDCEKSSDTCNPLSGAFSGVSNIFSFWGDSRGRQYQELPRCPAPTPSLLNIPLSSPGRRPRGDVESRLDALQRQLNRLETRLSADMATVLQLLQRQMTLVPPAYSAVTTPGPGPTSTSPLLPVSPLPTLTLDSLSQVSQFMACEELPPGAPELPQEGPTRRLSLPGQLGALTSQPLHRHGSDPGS

Row | EC50 [1] | Kinetic_solubility [2] | SMILES | also measured
1 | 2.2 nM |  | CCc1cc(F)cc2[nH]c(C(=O)N3CCN(C(=O)C(=O)NC4(C(F)(F)F)CCOCC4)C[C@H]3C)cc12 | 
2 | 127 nM |  | C[C@@H](NC(=O)C(=O)N1CCN(C(=O)c2cc3cc(F)c(F)cc3[nH]2)CC1)C(F)(F)F | 
3 | 24 nM |  | O=C(NC1(c2ccccn2)CCC1)C(=O)N1CCN(C(=O)c2cc3cc(F)c(F)cc3[nH]2)CC1 | solubility kinetic ([2]; read-out: Kinetic_solubility): 79 µM (≈ 36.9 µg/mL); CC50 at 144 h [3]: > 10000 nM; LBF [4]: 43%
4 | 18 nM | Not_determined(Insoluble) | Cc1noc(C2(NC(=O)C(=O)N3CCN(C(=O)c4cc5c(Cl)c(F)ccc5[nH]4)CC3)CC(F)(F)C2)n1 | LBF [4]: 44%
5 | 2.4 nM |  | CCc1cc(F)cc2[nH]c(C(=O)N3CCN(C(=O)C(=O)NC4(c5ccncc5F)COC4)C[C@H]3C)cc12 | 
6 | 240 nM | Not_determined(Insoluble) | CC1(NC(=O)C(=O)N2CCN(C(=O)c3cc4cc(F)c(F)cc4[nH]3)CC2)CS(=O)(=O)C1 | CC50 at 144 h [3]: > 10000 nM
7 | 14 nM | Not_determined(Insoluble) | O=C(NC1(C(F)(F)F)CCOCC1)C(=O)N1CCN(C(=O)c2cc3c(Cl)cc(F)cc3[nH]2)CC1 | 
8 | 13 nM |  | Cc1noc(C2(NC(=O)C(=O)N3CCN(C(=O)c4cc5cc(F)c(F)cc5[nH]4)CC3)CC(F)(F)C2)n1 | 
9 | 2.4 nM | Not_determined(Insoluble) | CCc1cc(F)cc2[nH]c(C(=O)N3CCN(C(=O)C(=O)NC4(C(F)(F)F)CCOCC4)CC3)cc12 | LBF [4]: 56%
10 | 19 nM |  | CCc1cc(F)cc2[nH]c(C(=O)N3CCN(C(=O)C(=O)NC4(C)COC4)CC3)cc12 | 
11 | 28 nM | Not_determined(Insoluble) | Cc1noc(C2(NC(=O)C(=O)N3CCN(C(=O)c4cc5c(F)c(F)c(F)cc5[nH]4)CC3)CC(F)(F)C2)n1 | 
12 | 30 nM |  | CC1(NC(=O)C(=O)N2CCN(C(=O)c3cc4cc(F)c(F)cc4[nH]3)CC2)CCOCC1 | 
13 | 34 nM |  | CC1(NC(=O)C(=O)N2CCN(C(=O)c3cc4cc(F)c(F)cc4[nH]3)CC2)CCC1 | 
14 | 2.4 nM |  | CCc1cc(F)cc2[nH]c(C(=O)N3CCN(C(=O)C(=O)NC4(c5cnn(C)c5)COC4)C[C@H]3C)cc12 | 
15 | 3.8 nM |  | CCc1cc(F)cc2[nH]c(C(=O)N3CCN(C(=O)C(=O)NC4(C)COC4)C[C@H]3C)cc12 | 
16 | 0.79 nM |  | O=C(NC1(c2ccncc2)CCC1)C(=O)N1CCN(C(=O)c2cc3cc(F)c(F)cc3[nH]2)CC1 | 
17 | 160 nM | Not_determined(Insoluble) | CN(C)C(=O)C1(NC(=O)C(=O)N2CCN(C(=O)c3cc4cc(F)c(F)cc4[nH]3)CC2)CC(F)(F)C1 | CC50 at 144 h [3]: > 32000 nM
18 | 23 nM | Not_determined(Insoluble) | Cc1noc(C2(NC(=O)C(=O)N3CCN(C(=O)c4cc5c(F)c(F)ccc5[nH]4)CC3)CC(F)(F)C2)n1 | 
19 | 28 nM | Not_determined(Insoluble) | Cc1noc(C2(NC(=O)C(=O)N3CCN(C(=O)c4cc5cc(F)c(Cl)cc5[nH]4)CC3)CC(F)(F)C2)n1 | 
20 |  |  | C[C@@H]1CN(C(=O)C(=O)NC2(C(F)(F)F)COC2)CCN1C(=O)c1cc2cc(F)c(F)cc2[nH]1 | IC50 [5]: 9800 nM; selectivity ratio [6]: 653

Row | EC50 [1] | Kinetic_solubility [2] | SMILES | also measured
21 | 2.9 nM |  | CCc1cc(F)cc2[nH]c(C(=O)N3CCN(C(=O)C(=O)NC4(c5nc(C)no5)COC4)C[C@H]3C)cc12 | 
22 | 12 nM | Not_determined(Insoluble) | Cc1cc(F)cc2[nH]c(C(=O)N3CCN(C(=O)C(=O)NC4(C(F)(F)F)CCOCC4)CC3)cc12 | 
23 | 1.3 nM | Not_determined(Insoluble) | CCc1cc(F)cc2[nH]c(C(=O)N3CCN(C(=O)C(=O)NC4(c5ccc(C)nc5)COC4)C[C@H]3C)cc12 | LBF [4]: 93%
24 | 60 nM |  | C[C@H]1CN(C(=O)C(=O)NC2(C)CCOCC2)CCN1C(=O)c1cc2cc(F)c(F)cc2[nH]1 | 
25 | 92 nM | Not_determined(Insoluble) | Cc1noc(C2(NC(=O)C(=O)N3CCN(C(=O)c4cc5ccc(Cl)cc5[nH]4)CC3)CC(F)(F)C2)n1 | 
26 | 52 nM |  | CC1(NC(=O)C(=O)N2CCN(C(=O)c3cc4cc(F)c(F)cc4[nH]3)CC2)COC1 | 
27 | 51 nM | Not_determined(Insoluble) | Cc1noc(C2(NC(=O)C(=O)N3CCN(C(=O)c4cc5c(Cl)cccc5[nH]4)CC3)CC(F)(F)C2)n1 | 
28 | 2.5 nM |  | CCc1cc(F)cc2[nH]c(C(=O)N3CCN(C(=O)C(=O)NC4(c5cnc(OC)cn5)COC4)C[C@H]3C)cc12 | 
29 | 26 nM | Not_determined(Insoluble) | O=C(NC1(C(F)(F)F)CC1)C(=O)N1CCN(C(=O)c2cc3cc(F)c(F)cc3[nH]2)CC1 | CC50 at 144 h [3]: > 10000 nM
30 | 140 nM | Not_determined(Insoluble) | Cc1noc(C2(NC(=O)C(=O)N3CCN(C(=O)c4cc5ccccc5[nH]4)CC3)CC(F)(F)C2)n1 | 
31 | 10 nM |  | CCc1cc(F)cc2[nH]c(C(=O)N3CCN(C(=O)C(=O)NC4(c5nc(C)no5)CC(F)(F)C4)CC3)cc12 | 
32 | 9.8 nM |  | CC1(NC(=O)C(=O)N2CCN(C(=O)c3cc4cc(F)c(F)cc4[nH]3)CC2)CC(F)(F)C1 | 
33 | 53 nM |  | C[C@@H](NC(=O)C(=O)N1CCN(C(=O)/C=C/c2c(N)cc(F)cc2F)CC1)C(F)(F)F | 
34 | 54 nM |  | O=C(NC1(c2c[nH]nn2)CC(F)(F)C1)C(=O)N1CCN(C(=O)c2cc3cc(F)c(F)cc3[nH]2)CC1 | 
35 | 7.5 nM |  | C[C@@H]1CN(C(=O)C(=O)NC2(C)CCOCC2)CCN1C(=O)c1cc2cc(F)c(F)cc2[nH]1 | 
36 | 7.5 nM |  | O=C(NC1(c2cccnc2)CCC1)C(=O)N1CCN(C(=O)c2cc3cc(F)c(F)cc3[nH]2)CC1 | 
37 | 18 nM |  | O=C(NC1(C(F)(F)F)CCOCC1)C(=O)N1CCN(C(=O)c2cc3cc(F)c(F)cc3[nH]2)CC1 | 
38 | 6.2 nM |  | CCc1cc(F)cc2[nH]c(C(=O)N3CCN(C(=O)C(=O)NC4(C(F)(F)F)COC4)CC3)cc12 | 
39 | 7 nM |  | CCc1cc(F)cc2[nH]c(C(=O)N3CCN(C(=O)C(=O)NC4(c5ncccn5)COC4)C[C@H]3C)cc12 | 
